In patent US20230145793A1, “SUBSTITUTED PYRIMIDINE OR PYRIDINE AMINE DERIVATIVE, COMPOSITION THEREOF, AND MEDICAL USE THEREOF” (SHANGHAI HAIYAN PHARMACEUTICAL TECHNOLOGY CO., LTD., priority 2020, published 2023):
Where two headings read alike, the source gives them in different places.

Legend:
A2A receptor [1] = molecular target: T1, A2A receptor (Homo sapiens, UniProt P29274); assay: Test 2: inhibitory activity to the A2A receptor, cAMP HTRF in CHO-K1/ADORA2A/Gα15 cells, NECA 1 uM; assay type: cell-based
T1 construct: host or cells: CHO-K1 (co-expressing Gα15)
T1 sequence (P29274 whole entry): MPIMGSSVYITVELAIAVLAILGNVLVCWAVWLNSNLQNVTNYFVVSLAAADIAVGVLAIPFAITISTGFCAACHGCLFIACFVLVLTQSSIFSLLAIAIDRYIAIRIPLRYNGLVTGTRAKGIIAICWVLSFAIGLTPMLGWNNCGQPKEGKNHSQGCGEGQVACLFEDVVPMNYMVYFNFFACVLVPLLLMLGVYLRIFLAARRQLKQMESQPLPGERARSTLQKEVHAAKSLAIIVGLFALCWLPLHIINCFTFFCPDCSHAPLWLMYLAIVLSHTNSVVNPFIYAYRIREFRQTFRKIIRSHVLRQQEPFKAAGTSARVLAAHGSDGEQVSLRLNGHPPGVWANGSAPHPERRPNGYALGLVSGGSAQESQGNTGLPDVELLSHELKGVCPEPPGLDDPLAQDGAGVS
Description: (§1) Test 2: Inhibitory Activities to the A2A Receptor and the A2B Receptor
(§2) Screening procedure was as follows:
(§3) 1. The cell density was adjusted with a serum-free medium to 6×10^5 cells/mL.
(§4) 3. The cells were placed still and cultured in an incubator at 37° C. for 30 min.
(§5) 4. 5 μL of cAMP-d2 and 5 μL of cAMP-ab (Cisbio, 62AM4PEB) were added in sequence.
(§6) 5. The 384-well plate was placed in dark at the room temperature for 1 h.
(§7) 6. The plate was read (Victor X5, PerkinElmer), data were analyzed by XLfit nonlinear regression, and IC50 values of the compounds were calculated.

A2B receptor [2] = molecular target: T2, A2B receptor (Homo sapiens, UniProt P29275); assay: Test 2: inhibitory activity to the A2B receptor, cAMP HTRF in CHO-K1/ADORA2B/Gα15 cells, NECA 0.1 uM; assay type: cell-based
T2 construct: host or cells: CHO-K1 (co-expressing Gα15)
T2 sequence (P29275 1-332): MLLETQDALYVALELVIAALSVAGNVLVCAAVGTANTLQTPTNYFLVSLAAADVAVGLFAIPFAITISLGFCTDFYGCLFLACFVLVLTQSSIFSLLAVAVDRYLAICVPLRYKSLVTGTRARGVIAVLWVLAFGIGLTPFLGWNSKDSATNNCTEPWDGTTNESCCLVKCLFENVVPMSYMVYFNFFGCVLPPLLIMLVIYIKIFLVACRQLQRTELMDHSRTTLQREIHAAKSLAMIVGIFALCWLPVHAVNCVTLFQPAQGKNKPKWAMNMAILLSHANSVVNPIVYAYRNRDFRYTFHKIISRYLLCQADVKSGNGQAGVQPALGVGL
Description: as §1, §2, §3, §4, §5, §6, §7

A2B receptor [3] = molecular target: T2, A2B receptor; assay: Test 1: inhibitory activity to the A2B receptor, cAMP HTRF in CHO-K1/ADORA2B/Gα15 cells, NECA 10 nM; assay type: cell-based
Description: (§8) Test 1: Inhibitory Activities to the A2A Receptor and the A2B Receptor CHO-K1/ADORA2A/Gα15 (GenScript, M00246) and CHO-K1/ADORA2B/Gα15 (GenScript, M00329) cells were cultured in a Ham's F-12 (Gibco, 31765092) medium containing 10% FBS, Zeocin (200 ug/mL), and Hygromycin B (100 ug/mL), or containing 10% FBS, G418 (400 ug/mL), and Hygromycin B (100 ug/mL) under culture conditions specified in the corresponding instruction. Screening procedure was as follows: 1. The cell density was adjusted with a serum-free medium to 6×10^5 cells/mL. 2. 5 uL of cell solution, 2.5 μL of NECA (Sigma, 119140-10MG), and 2.5 μL of compound solution were placed into each well of a 384-well plate (Greiner Bio-One, 784075) in sequence, the final concentration of NECA was 50 nM (CHO-K1/ADORA2A) or 10 nM (CHO-K1/ADORA2B), and the compound solution was subjected to 3-fold dilution from the final concentration of 3 uM. 3. The cells were placed still and cultured in an incubator at 37° C. for 30 min. 4. 5 μL of cAMP-d2 and 5 μL of cAMP-ab (Cisbio, 62AM4PEB) were added in sequence. 5. The 384-well plate was placed in dark at the room temperature for 1 h. 6. The plate was read (Victor X5, PerkinElmer), data were analyzed by XLfit nonlinear regression, and IC50 values of the compounds were calculated.

A2A receptor [4] = molecular target: T1, A2A receptor; assay: Test 1: inhibitory activity to the A2A receptor, cAMP HTRF in CHO-K1/ADORA2A/Gα15 cells, NECA 50 nM; assay type: cell-based
Description: as §8

[5] = Test 3: in-vivo pharmacokinetics test in mice (plasma, LC/MS/MS); settings: mouse, male ICR mice; for clearance: read-out: Clearance rate CLz
Description: Test 3: In-Vivo Pharmacokinetics Test
Mice were respectively administrated with the compound of the present disclosure by intravenous injection or intragastric administration, and the concentration of the drug in the plasma at different time points was determined by LC/MS/MS to explore pharmacokinetic behavior of the compound of the present disclosure in the mouse so as to evaluate the pharmacokinetic characteristics of the compound.
Experimental animals: healthy adult male ICR mice (weight: 25 to 40 g, 12 mice, mice in the intravenous injection group had free access to water and food, and mice in the intragastric administration group fasted overnight and had free access to water and food 4 h after administration), provided by Beijing Vital River Laboratory Animal Co., Ltd.
Administration method and dosage: before administration, animals that met the experimental requirements were selected, weighed, and marked. The ICR mice were subjected to tail vein administration (2 mg/kg, 5% DMSO, pH=4.5, 20% Captisol) or intragastric administration (10 mg/kg, 5% DMSO, pH=4.5, 20% Captisol).
Blood sample collection: before blood sample collection, each mouse was tied, and about 100 μL of blood was collected from each mouse subjected to administration at a preset blood collection time point through the jugular vein (for the mice subjected to intravenous administration: blood was collected from each mouse at a total of 9 time points, i.e., 0.083 h, 0.25 h, 0.5 h, 1 h, 2 h, 4 h, 6 h, 7.5 h, and 24 h after administration; and for the mice subjected to intragastric administration: blood was collected from each mouse at a total of 9 time points, i.e., 0.083 h, 0.25 h, 0.5 h, 1 h, 2 h, 4 h, 6 h, 7.5 h, and 24 h after administration). The blood was transferred to a test tube (1.5 mL) containing K2EDTA and centrifuged for 4 min (8,000 rpm, 4° C.) to separate out plasma, and the whole process was completed within 15 min after blood collection. All samples were stored in a refrigerator at −20° C. before sample analysis. The concentration of the drug was determined by LC/MS/MS.
Pharmacokinetic property parameters of the compounds of some examples of the present disclosure in the mice under the conditions of same dosage and intravenous administration are shown in Table 3:
Pharmacokinetic property parameters of the compounds of some examples of the present disclosure in the mice under the conditions of same dosage and intragastric administration are shown in Table 4: […]

[6] = intravenous (tail vein) 2 mg/kg, read-out: Area under the curve AUC0-t
[7] = intravenous (tail vein) 2 mg/kg
[8] = po, intragastric administration 10 mg/kg
[9] = po, intragastric administration 10 mg/kg, read-out: Area under the curve AUClast

SMILES | IC50 (A2A receptor [1]) | IC50 (A2B receptor [2]) | IC50 (A2B receptor [3]) | IC50 (A2A receptor [4]) | AUC(0-t) [5, 6] | clearance [5, 7] | Cmax [5, 8] | AUC(0-t) [5, 9]
Cc1c(C#N)cccc1-c1cc(-c2cn(Cc3cccc(C(C)(C)O)n3)nn2)nc(N)n1 [Compound D1, reference compound] | 0.065 µM | 0.075 µM | – | – | – | – | – | –
Cc1c(C#N)cccc1-c1nc(N)c(F)c(-c2cn(Cc3cccc(C(C)(C)O)n3)nn2)n1 [Compound L-1] | 0.024 µM | 0.062 µM | 0.003 µM | 0.001 µM | – | – | – | –
Cc1c(C#N)cccc1-c1nc(N)c(Cl)c(-c2cn(Cc3cccc(C(C)(C)O)n3)nn2)n1 [Compound L-3] | – | – | 0.004 µM | < 0.001 µM | 3600 ng·h/mL | 9.12 mL/min/kg | 15900 ng/mL | 22200 ng·h/mL
Cc1c(C#N)cccc1-c1nc(N)c(Cl)c(-c2cn(Cc3ccn(C)n3)nn2)n1 [Compound L-9] | – | – | 0.001 µM | 0.001 µM | 4680 ng·h/mL | 6.97 mL/min/kg | 6790 ng/mL | 23800 ng·h/mL
Cc1c(C#N)cccc1-c1nc(N)c(Cl)c(-c2cn(Cc3cc(C(C)(C)O)n(C)n3)nn2)n1 [Compound L-10] | – | – | 0.001 µM | 0.004 µM | 2740 ng·h/mL | 12.1 mL/min/kg | 12600 ng/mL | 18000 ng·h/mL
Cc1c(C#N)cccc1-c1nc(N)c(F)c(-c2cn(Cc3ccn(C4CC4)n3)nn2)n1 [Compound L-32] | – | – | 0.001 µM | < 0.001 µM | 2510 ng·h/mL | 13.3 mL/min/kg | 8980 ng/mL | 14800 ng·h/mL
Cc1c(C#N)cccc1-c1nc(N)c(F)c(-c2cn(Cc3ccn(CCF)n3)nn2)n1 [Compound L-38] | 0.018 µM | 0.05 µM | 0.002 µM | 0.001 µM | 2590 ng·h/mL | 12.7 mL/min/kg | 7210 ng/mL | 13300 ng·h/mL
Cc1c(C#N)cccc1-c1nc(N)c(F)c(-c2cn(Cc3ccn(CC(F)F)n3)nn2)n1 [Compound L-44] | 0.022 µM | 0.064 µM | 0.004 µM | 0.001 µM | – | – | – | –
Cc1c(C#N)cccc1-c1nc(N)c(F)c(-c2cn(Cc3ccn(C)n3)nn2)n1 [Compound L-67] | – | – | 0.007 µM | 0.003 µM | 2310 ng·h/mL | 14.2 mL/min/kg | 5720 ng/mL | 17300 ng·h/mL
Cc1c(C#N)cccc1-c1nc(N)c(F)c(-c2cn(Cc3ccn(C4CCOCC4)n3)nn2)n1 [Compound L-89] | 0.011 µM | 0.068 µM | 0.005 µM | < 0.001 µM | – | – | – | –
Cc1c(C#N)cccc1-c1nc(N)c(F)c(-c2cn(Cc3ccn(C4CCN(C)C4)n3)nn2)n1 [Compound L-90] | – | – | 0.029 µM | 0.005 µM | – | – | – | –
Cc1c(C#N)cccc1-c1nc(N)c(F)c(-c2cn(Cc3cc(C4CC4)n(C)n3)nn2)n1 [Compound L-92] | – | – | 0.005 µM | 0.011 µM | – | – | – | –
Cc1c(C#N)cccc1-c1nc(N)c(Cl)c(-c2cn(Cc3ccn(C4COC4)n3)nn2)n1 [Compound L-93] | – | – | 0.004 µM | < 0.001 µM | – | – | – | –
Cc1c(C#N)cccc1-c1nc(N)c(F)c(-c2cn(Cc3nc(C(C)(C)O)ccc3O)nn2)n1 [Compound L-94] | 0.016 µM | 0.038 µM | – | – | – | – | – | –
Cc1c(C#N)cccc1-c1nc(N)c(F)c(-c2cn(Cc3ccn(CC#N)n3)nn2)n1 [Compound L-97] | – | – | 0.005 µM | 0.006 µM | – | – | – | –
